From patent publication US20230374030A1, “SOLID-STATE FORMS OF RELUGOLIX” (MACFARLAN SMITH LIMITED, priority 2019, published 2023) come the findings set out here.

Holding throughout (format): physicochemical
A short description of data set [1]: Dynamic vapor sorption (DVS). The settings on record: for weight loss in DVS: relative humidity about 0 to 95%. Here is the method:
DVS samples are analyzed using a TA Instruments Q5000SA gravimetric water sorption analyzer. The relative humidity is adjusted between about 0-95% and the weight of the sample is continuously monitored and recorded with respect to the relative humidity and time.

A short description of data set [2]: Solid-state stability under humidity (storage at high humidity; XRPD after DVS). The settings on record: for stability at various humidity levels: XRPD analysis after DVS.
Data set [3] in a line: Solid-state stability on drying under vacuum. Here is the method: Form A of the DMF solvate of relugolix is stable, i.e., it is unchanged after prolonged drying (e.g., about 2 days) under vacuum at about 70° C.

On to `CONC(=O)Nc1ccc(-c2sc3c(c2CN(C)C)c(=O)n(-c2ccc(OC)nn2)c(=O)n3Cc2c(F)cccc2F)cc1` [Form A of anhydrous relugolix, 1-[4-[1-[(2,6-difluorophenyl)-methyl]-5-[(dimethylamino)methyl]-3-(6-methoxypyridazin-3-yl)-2,4-dioxothieno-[2,3-d]pyrimidin-6-yl]phenyl]-3-methoxyurea], for which the “weight loss in DVS” value in data set [1] is on record as “about 2%”. Moreover, in data set [2], the “stability at various humidity levels” value is reported as “remains stable”. The “XRPD changes after drying” value in data set [3] (about 18 hours at about 30° C. under vacuum) was “no changes”.
On to `CONC(=O)Nc1ccc(-c2sc3c(c2CN(C)C)c(=O)n(-c2ccc(OC)nn2)c(=O)n3Cc2c(F)cccc2F)cc1` [Form A of the DMF solvate of relugolix, 1-[4-[1-[(2,6-difluorophenyl)-methyl]-5-[(dimethylamino)methyl]-3-(6-methoxypyridazin-3-yl)-2,4-dioxothieno-[2,3-d]pyrimidin-6-yl]phenyl]-3-methoxyurea], for which, in data set [1] (at about 90% RH), the “loss of mass in DVS” value is “about 1%”. Also, the stability under humidity result in data set [2] (about 97% humidity, ambient temperatures, over a month) is on record as “remains unchanged”. Moreover, the “stability after prolonged drying” value in data set [3] (about 2 days under vacuum at about 70° C.) was “unchanged”.
`CONC(=O)Nc1ccc(-c2sc3c(c2CN(C)C)c(=O)n(-c2ccc(OC)nn2)c(=O)n3Cc2c(F)cccc2F)cc1` [Form B of anhydrous relugolix, 1-[4-[1-[(2,6-difluorophenyl)-methyl]-5-[(dimethylamino)methyl]-3-(6-methoxypyridazin-3-yl)-2,4-dioxothieno-[2,3-d]pyrimidin-6-yl]phenyl]-3-methoxyurea]: in data set [1], the “weight loss in DVS” value is reported as “about 7%”. The “stability at various humidity levels” value in data set [2] was “remains stable”.
Consider `CONC(=O)Nc1ccc(-c2sc3c(c2CN(C)C)c(=O)n(-c2ccc(OC)nn2)c(=O)n3Cc2c(F)cccc2F)cc1` [Form C of anhydrous relugolix, 1-[4-[1-[(2,6-difluorophenyl)-methyl]-5-[(dimethylamino)methyl]-3-(6-methoxypyridazin-3-yl)-2,4-dioxothieno-[2,3-d]pyrimidin-6-yl]phenyl]-3-methoxyurea], for which the “water absorption in DVS (and secretion of it all)” value in data set [1] (relative humidity about 0 to about 95%) is given as around 2%. In addition, the “stability at various humidity levels” value in data set [2] is listed as “remains stable”.
